This is an account of results in US10988523B2, “Modified lipidated Relaxin B chain peptides and their therapeutic use” (Sanofi, priority 2018, dated 2021).

SMILES strings stand for the structures. *1 amine or outer side, *2 acyl side, *3 side chain or, on linkers, in order; H or OH if unused. Where a SMILES comes first, the peptide text is derived from it. Side-chain parts run from the residue outwards. [ ]: non-standard residue; d: D form. The star is where a group is joined. PEG28 = NCCOCCOCCOCCOCCOCCOCCOCCOCCOCCOCCOCCOCCOCCOCCOCCOCCOCCOCCOCCOCCOCCOCCOCCOCCOCCOCCOCCOCCC(=O)O; PEG12 = NCCOCCOCCOCCOCCOCCOCCOCCOCCOCCOCCOCCOCCC(=O)O; Arachidoyl = CCCCCCCCCCCCCCCCCCCC(=O)*; γGlu = O=C(O)[C@H](CCC(=O)[*:2])N[*:1]; Pentadecanoyl = CCCCCCCCCCCCCCC(=O)*; Stearoyl = CCCCCCCCCCCCCCCCCC(=O)*; Myristoyl = CCCCCCCCCCCCCC(=O)*; αMeK = C[C@](N)(CCCCN)C(=O)O; Nle = CCCC[C@H](N)C(=O)O; AEEA = NCCOCCOCC(=O)O; Aib = CC(C)(N)C(=O)O

The target in the assay is T1, RXFP1 (Homo sapiens, UniProt Q9HBX9).
T1 construct: OVCAR5 cells expressing endogenous RXFP1; endogenous in cells; host or cells: OVCAR5 cells
T1 sequence (Q9HBX9 1-757): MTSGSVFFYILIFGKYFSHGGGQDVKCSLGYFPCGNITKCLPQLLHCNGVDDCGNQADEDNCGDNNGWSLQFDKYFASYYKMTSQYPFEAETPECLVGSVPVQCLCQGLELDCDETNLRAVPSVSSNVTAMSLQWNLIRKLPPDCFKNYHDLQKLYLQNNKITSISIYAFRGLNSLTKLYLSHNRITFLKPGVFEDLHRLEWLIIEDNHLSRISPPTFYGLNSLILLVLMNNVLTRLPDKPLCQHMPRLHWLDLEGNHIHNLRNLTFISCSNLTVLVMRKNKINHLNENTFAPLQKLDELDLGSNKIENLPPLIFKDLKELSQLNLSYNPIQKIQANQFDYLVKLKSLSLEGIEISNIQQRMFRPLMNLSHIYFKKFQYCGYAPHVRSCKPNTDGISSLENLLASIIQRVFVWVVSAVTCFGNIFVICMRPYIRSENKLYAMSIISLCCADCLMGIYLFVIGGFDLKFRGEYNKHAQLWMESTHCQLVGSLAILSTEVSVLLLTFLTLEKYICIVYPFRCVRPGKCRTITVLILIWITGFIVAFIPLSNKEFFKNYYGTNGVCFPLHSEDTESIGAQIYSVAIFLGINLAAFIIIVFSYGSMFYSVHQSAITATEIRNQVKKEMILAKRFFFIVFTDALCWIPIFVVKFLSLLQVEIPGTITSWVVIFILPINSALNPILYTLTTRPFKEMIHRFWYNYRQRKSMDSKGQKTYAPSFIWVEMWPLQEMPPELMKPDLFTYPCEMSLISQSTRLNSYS
As to the kind of experiment: OVCAR5 cAMP assay (HTRF), RXFP1 agonist activity. The assay is classed as cell-based. The conditions noted are these: for EC50: OVCAR5 cells, cAMP HTRF, read-out: EC50 (nM), OVCAR 5 cells (cAMP); for Emax: OVCAR-5, maximal cAMP relative to H2-relaxin maximum (100%), read-out: EMax, OVCAR 5 cells (cAMP). The method in brief: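 OVCAR5 cells (endogenous RXFP1) pretreated 40 min at 37° C with 1 mM IBMX, then exposed to peptides in serum-free medium for 30 min at 37° C. Lysate cAMP read by HTRF; EC50 from variable-slope sigmoidal fit; Emax as % of H2-relaxin maximal cAMP in same run.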

By EC50 is commonly meant the concentration at which the effect is half-maximal. A word on the Emax: it is the greatest response seen or fitted, relative to the assay's reference.

In the case of `CCCCCCCCCCCCCCCCCCCC(=O)N[C@@H](CCC(=O)N[C@@H](CCC(=O)N[C@@H](CCC(=O)NCCOCCOCC(=O)NCCOCCOCC(=O)NCCOCCOCC(=O)NCCCC[C@H](NC(=O)[C@H](CCCCNC(C)=O)NC(=O)[C@H](CCCCN)NC(=O)[C@H](CCCNC(=N)N)NC(=O)C(C)(C)NC(=O)[C@H](CO)NC(=O)[C@H](Cc1c[nH]c2ccccc12)NC(=O)[C@@H](NC(=O)[C@H](CO)NC(=O)[C@H](CCCC)NC(=O)CNC(=O)[C@H](CCC(=O)O)NC(=O)C(C)(C)NC(=O)C(C)(C)NC(=O)[C@@H](NC(=O)[C@H](CCCCNC(C)=O)NC(=O)[C@H](C)NC(=O)[C@H](CCCNC(=N)N)NC(=O)[C@@H](NC(=O)[C@H](CCCCN)NC(=O)[C@H](CCC(=O)O)NC(=O)[C@H](CCCNC(=N)N)NC(=O)CNC(=O)[C@H](CCC(=O)O)NC(=O)[C@H](CC(C)C)NC(C)=O)C(C)C)[C@@H](C)CC)[C@@H](C)O)C(N)=O)C(=O)O)C(=O)O)C(=O)O` [compound 171] (Ac-LEGREKVRAK(Ac)I[Aib][Aib]EG[Nle]STWS[Aib]RKK(Ac)K([AEEA-AEEA-AEEA-γGlu-γGlu-γGlu-Arachidoyl])-NH2), the EC50 stood at 0.18 nM and the Emax came to 83%. Taken in the same sequence, the figures for `CCCCCCCCCCCCCCC(=O)N[C@@H](CCC(=O)N[C@@H](CCC(=O)N[C@@H](CCC(=O)N[C@@H](CCC(=O)NCCCC[C@H](NC(=O)COCCOCCNC(=O)COCCOCCNC(=O)COCCOCCNC(=O)COCCOCCNC(=O)[C@H](CCCCNC(C)=O)NC(=O)[C@H](C)NC(=O)[C@H](CCCNC(=N)N)NC(=O)[C@](C)(CCCCN)NC(=O)[C@H](CO)NC(=O)[C@H](Cc1ccccc1)NC(=O)[C@@H](NC(=O)[C@H](CO)NC(=O)[C@H](CCC(N)=O)NC(=O)CNC(=O)[C@H](CCC(=O)O)NC(=O)C(C)(C)NC(=O)C(C)(C)NC(=O)[C@@H](NC(=O)[C@H](CCCCNC(C)=O)NC(=O)[C@H](C)NC(=O)[C@H](CCCNC(=N)N)NC(=O)[C@@H](NC(=O)[C@H](CCCCN)NC(=O)[C@H](CCC(=O)O)NC(=O)[C@H](CCCNC(=N)N)NC(=O)CNC(=O)[C@H](CCC(=O)O)NC(=O)[C@H](CC(C)C)NC(C)=O)C(C)C)[C@@H](C)CC)[C@@H](C)O)C(N)=O)C(=O)O)C(=O)O)C(=O)O)C(=O)O` [compound 182] (Ac-LEGREKVRAK(Ac)I[Aib][Aib]EGQSTFS[αMeK]RAK(Ac)[AEEA][AEEA][AEEA][AEEA]K([γGlu-γGlu-γGlu-γGlu-Pentadecanoyl])-NH2) were 0.19 nM and 99%. Take `CCCCCCCCCCCCCCCCCC(=O)N[C@@H](CCC(=O)NCCCC[C@H](NC(=O)CCOCCOCCOCCOCCOCCOCCOCCOCCOCCOCCOCCOCCNC(=O)[C@H](CCCCN)NC(=O)[C@H](CCCCN)NC(=O)[C@H](CCCNC(=N)N)NC(=O)C(C)(C)NC(=O)[C@H](CO)NC(=O)[C@H](Cc1c[nH]c2ccccc12)NC(=O)[C@@H](NC(=O)[C@H](CO)NC(=O)[C@H](CCCC)NC(=O)CNC(=O)[C@H](CCC(=O)O)NC(=O)C(C)(C)NC(=O)C(C)(C)NC(=O)[C@@H](NC(=O)[C@H](CCC(N)=O)NC(=O)[C@H](C)NC(=O)[C@H](CCCNC(=N)N)NC(=O)[C@@H](NC(=O)[C@H](CCCCN)NC(=O)[C@H](CCC(=O)O)NC(=O)[C@H](CCCNC(=N)N)NC(=O)CNC(=O)[C@H](CCC(=O)O)NC(=O)[C@H](CC(C)C)NC(C)=O)C(C)C)[C@@H](C)CC)[C@@H](C)O)C(N)=O)C(=O)O` [compound 22] (Ac-LEGREKVRAQI[Aib][Aib]EG[Nle]STWS[Aib]RKK[PEG12]K([γGlu-Stearoyl])-NH2): the Emax was determined as 104%. Still for that read-out and setting: in the case of `CCCCCCCCCCCCCCCCCC(=O)N[C@@H](CCC(=O)N[C@@H](CCC(=O)N[C@@H](CCC(=O)NCCCC[C@H](NC(=O)CCOCCOCCOCCOCCOCCOCCOCCOCCOCCOCCOCCOCCOCCOCCOCCOCCOCCOCCOCCOCCOCCOCCOCCOCCOCCOCCOCCOCCNC(=O)[C@H](CCCCN)NC(=O)[C@H](CCCCN)NC(=O)[C@H](CCCNC(=N)N)NC(=O)C(C)(C)NC(=O)[C@H](CO)NC(=O)[C@H](Cc1c[nH]c2ccccc12)NC(=O)[C@@H](NC(=O)[C@H](CO)NC(=O)[C@H](CCCC)NC(=O)CNC(=O)[C@H](CCC(=O)O)NC(=O)C(C)(C)NC(=O)C(C)(C)NC(=O)[C@@H](NC(=O)[C@H](CCCCNC(C)=O)NC(=O)[C@H](C)NC(=O)[C@H](CCCNC(=N)N)NC(=O)[C@@H](NC(=O)[C@H](CCCCN)NC(=O)[C@H](CCC(=O)O)NC(=O)[C@H](CCCNC(=N)N)NC(=O)CNC(=O)[C@H](CCC(=O)O)NC(=O)[C@H](CC(C)C)NC(C)=O)C(C)C)[C@@H](C)CC)[C@@H](C)O)C(N)=O)C(=O)O)C(=O)O)C(=O)O` [compound 48] (Ac-LEGREKVRAK(Ac)I[Aib][Aib]EG[Nle]STWS[Aib]RKK[PEG28]K([γGlu-γGlu-γGlu-Stearoyl])-NH2) it was 99%; in that of `CCCCCCCCCCCCCCCCCC(=O)N[C@@H](CCC(=O)N[C@@H](CCC(=O)N[C@@H](CCC(=O)NCCOCCOCC(=O)NCCOCCOCC(=O)NCCOCCOCC(=O)NCCCC[C@H](NC(=O)[C@H](CCCCNC(C)=O)NC(=O)[C@H](C)NC(=O)[C@H](C)NC(=O)C(C)(C)NC(=O)[C@H](CO)NC(=O)[C@H](Cc1c[nH]c2ccccc12)NC(=O)[C@@H](NC(=O)[C@H](CO)NC(=O)[C@H](CCCC)NC(=O)CNC(=O)[C@H](CCC(=O)O)NC(=O)C(C)(C)NC(=O)C(C)(C)NC(=O)[C@@H](NC(=O)[C@H](CCCCNC(C)=O)NC(=O)[C@H](C)NC(=O)[C@H](CCCNC(=N)N)NC(=O)[C@@H](NC(=O)[C@H](CCCCN)NC(=O)[C@H](CCC(=O)O)NC(=O)[C@H](CCCNC(=N)N)NC(=O)CNC(=O)[C@H](CCC(=O)O)NC(=O)[C@H](CC(C)C)NC(C)=O)C(C)C)[C@@H](C)CC)[C@@H](C)O)C(N)=O)C(=O)O)C(=O)O)C(=O)O` [compound 155] (Ac-LEGREKVRAK(Ac)I[Aib][Aib]EG[Nle]STWS[Aib]AAK(Ac)K([AEEA-AEEA-AEEA-γGlu-γGlu-γGlu-Stearoyl])-NH2), 95%. For the compound `CCCCCCCCCCCCCC(=O)N[C@@H](CCC(=O)N[C@@H](CCC(=O)N[C@@H](CCC(=O)N[C@@H](CCC(=O)NCCCC[C@H](NC(=O)COCCOCCNC(=O)COCCOCCNC(=O)COCCOCCNC(=O)COCCOCCNC(=O)[C@H](CCCCNC(C)=O)NC(=O)[C@H](C)NC(=O)[C@H](CCCNC(=N)N)NC(=O)[C@](C)(CCCCN)NC(=O)[C@H](CO)NC(=O)[C@H](Cc1ccccc1)NC(=O)[C@@H](NC(=O)[C@H](CO)NC(=O)[C@H](CCCC)NC(=O)CNC(=O)[C@H](CCC(=O)O)NC(=O)C(C)(C)NC(=O)C(C)(C)NC(=O)[C@@H](NC(=O)[C@H](CCCCNC(C)=O)NC(=O)[C@H](C)NC(=O)[C@H](CCCNC(=N)N)NC(=O)[C@@H](NC(=O)[C@H](CCCCN)NC(=O)[C@H](CCC(=O)O)NC(=O)[C@H](CCCNC(=N)N)NC(=O)CNC(=O)[C@H](CCC(=O)O)NC(=O)[C@H](CC(C)C)NC(C)=O)C(C)C)[C@@H](C)CC)[C@@H](C)O)C(N)=O)C(=O)O)C(=O)O)C(=O)O)C(=O)O` [compound 172] (Ac-LEGREKVRAK(Ac)I[Aib][Aib]EG[Nle]STFS[αMeK]RAK(Ac)[AEEA][AEEA][AEEA][AEEA]K([γGlu-γGlu-γGlu-γGlu-Myristoyl])-NH2), the EC50 is 0.56 nM and the Emax is 95%. In the same order, the values of `CCCCCCCCCCCCCCCCCC(=O)N[C@@H](CCC(=O)N[C@@H](CCC(=O)N[C@@H](CCC(=O)N[C@@H](CCC(=O)NCCOCCOCC(=O)NCCOCCOCC(=O)NCCOCCOCC(=O)NCCCC[C@H](NC(=O)[C@H](CCCCN)NC(=O)[C@H](CCCCN)NC(=O)[C@H](CCCNC(=N)N)NC(=O)C(C)(C)NC(=O)[C@H](CO)NC(=O)[C@H](Cc1c[nH]c2ccccc12)NC(=O)[C@@H](NC(=O)[C@H](CO)NC(=O)[C@H](CCC(N)=O)NC(=O)CNC(=O)[C@H](CCC(=O)O)NC(=O)C(C)(C)NC(=O)C(C)(C)NC(=O)[C@@H](NC(=O)[C@H](CCCCNC(C)=O)NC(=O)[C@H](C)NC(=O)[C@H](CCCNC(=N)N)NC(=O)[C@@H](NC(=O)[C@H](CCCCN)NC(=O)[C@H](CCC(=O)O)NC(=O)[C@H](CCCNC(=N)N)NC(=O)CNC(=O)[C@H](CCC(=O)O)NC(=O)[C@H](CC(C)C)NC(C)=O)C(C)C)[C@@H](C)CC)[C@@H](C)O)C(N)=O)C(=O)O)C(=O)O)C(=O)O)C(=O)O` [compound 115] (Ac-LEGREKVRAK(Ac)I[Aib][Aib]EGQSTWS[Aib]RKKK([AEEA-AEEA-AEEA-γGlu-γGlu-γGlu-γGlu-Stearoyl])-NH2) are 0.17 nM and 93%.
